We go through four compounds from patent US10640507B2, “PBD antibacterial agents” (KING'S COLLEGE LONDON, priority 2015, dated 2020).

In brackets after ≈: the same amount, converted by molar mass. Like-named read-outs stand apart in the source and are kept apart here.

Format in all cases: cell-based
Experiment [1] concerns E. faecium VRE NCTC 12204. Put plainly: General MIC protocol, Gram positive panel. As to the method:
(§1) General Minimum Inhibitory Concentration (MIC) Protocol
(§2) 1. Grow up cultures of bacterial strains to be tested overnight.
(§3) 2. Dilute down overnight cultures to concentration of 1×10^6 bacteria/ml (OD0.01) in Tryptic soy broth (TSB).
(§4) 3. Add 100 μl of TSB media to column 2-column 12 in 96 well plate (keeping column 1 clear).
(§5) 4. Make up compound to a concentration of 64 μg/ml in water (or alternatively to twice the chosen maximum concentration to be tested).
(§6) 5. Add 100 μl of antibiotic solution to the 1st and 2nd columns.
(§7) 6. Using a multichannel pipette take 100 μl from the 2nd column wells and pipette into 3rd column wells and repeat down the 96 well plate (remembering to include controls i.e. uninfected media and media with no antibiotic).
(§8) 7. To each well (except uninfected control row H) add 100 μl of bacterially infected media at a concentration of 1×10^6/ml.
(§9) 8. This dilutes down the concentration of the antibiotic by half (top dose is therefore 32 μg/ml in column 1) and also gives you a starting bacterial concentration of 5×10^5/ml.
(§10) 9. Wrap plate with parafilm to prevent evaporation.
(§11) 10. Leave at desired temperature (37° C. unless specified elsewhere) for 20 hours.
(§12) 11. Next day check plates for growth and measure optical density (i.e. absorbance) at a wavelength of 600 nm (OD600).
(§13) An example of such a plate is shown in FIG. 1 where column A represents wells that receive the top dose 100 μl; column B represents wells that receive the top dose 100 μl+100 μl TSB; and column C represents wells that receive 100 μl TSB. Row H which is marked by a box labelled D represents a blank where the cells receive no bacteria.

In experiment [2] the test system is methicillin sensitive S. aureus ATTC 9144 (NCTC 6571). Put plainly: General MIC protocol, Gram positive panel. The note with it: Staphylococcus aureus, MSSA / NCTC 6571; MSSA 9144. How it is done: as §1, §2, §3, §4, §5, §6, §7, §8, §9, §10, §11, §12, §13
A further experiment deals with EMRSA-15. Put plainly: General MIC protocol, Gram positive panel. How it is done:
as §1, §2, §3, §4, §5, §6, §7, §8, §9, §10, §11, §12, §13

Experiment [3] has as its system E. faecalis VRE NCTC 12201. Put plainly: General MIC protocol, Gram positive panel. As to the method:
as §1, §2, §3, §4, §5, §6, §7, §8, §9, §10, §11, §12, §13

A further experiment relates to EMRSA-16. Put plainly: General MIC protocol, Gram positive panel. How it is done: as §1, §2, §3, §4, §5, §6, §7, §8, §9, §10, §11, §12, §13
In another experiment the test system is E. faecalis VSE NCTC 775. Put plainly: General MIC protocol, Gram positive panel. The note with it: Enterococcus faecalis, NCTC775; VSE 775. How it is done: as §1, §2, §3, §4, §5, §6, §7, §8, §9, §10, §11, §12, §13
The next experiment deals with A. baumannii NCTC 17978. Put plainly: General MIC protocol, Gram negative. To be noted: Acinetobacter baumannii, NCTC17978. How it is done: as §1, §2, §3, §4, §5, §6, §7, §8, §9, §10, §11, §12, §13
The subject of another experiment is K. pneumonia M6. Put plainly: General MIC protocol, Gram negative. To be noted: Klebsiella pneumoniae; KP-M6. How it is done:
as §1, §2, §3, §4, §5, §6, §7, §8, §9, §10, §11, §12, §13

The subject of another experiment is A. baumannii AYE. Put plainly: General MIC protocol, Gram negative. To be noted: Acinetobacter baumannii. How it is done: as §1, §2, §3, §4, §5, §6, §7, §8, §9, §10, §11, §12, §13
The next experiment concerns P. aeruginosa PA01. Put plainly: General MIC protocol, Gram negative. The note with it: Pseudomonas aeruginosa, PA01, PA01. How it is done:
as §1, §2, §3, §4, §5, §6, §7, §8, §9, §10, §11, §12, §13

A further experiment has as its system P. aeruginosa NCTC 13437. Put plainly: General MIC protocol, Gram negative. The note with it: Pseudomonas aeruginosa, NCTC13437. As to the method:
as §1, §2, §3, §4, §5, §6, §7, §8, §9, §10, §11, §12, §13

Another experiment deals with K. pneumonia NCTC 13368. Put plainly: General MIC protocol, Gram negative. The note with it: Klebsiella pneumoniae, NCTC13368. As to the method: as §1, §2, §3, §4, §5, §6, §7, §8, §9, §10, §11, §12, §13
For experiment [4], the system named is HeLa (Cervical cancer cell line). Put plainly: MTT cytotoxicity assay. To be noted: Homo sapiens, read-out: IC50 HeLa (Cervical cancer cell line). As to the method:
(§14) Two immortalised human cell lines, HeLa and WI38 were used for cytotoxicity screening of the compounds. HeLa is a human cervical cancer cell line and WI38 is a normal healthy cell line. The cell lines were obtained from the American Type Culture Collection. The cell-lines were maintained in monolayer culture in 75 cm2 flasks (TPP, Switzerland) under a humidified 5% CO2 atmosphere at 37° C. The HeLa cell line was maintained in Dulbecco's Modified Eagles Media (DMEM; Invitrogen) supplemented with foetal bovine serum (10% v/v; Invitrogen), L-glutamine (2 mM; Invitrogen), non-essential amino acids (1×; Invitrogen) and Penicillin-Streptomycin (1% v/v, Invitrogen). For WI38, Eagle's Minimum Essential Medium, and Penicillin-Streptomycin (1% v/v, Invitrogen) and foetal bovine serum (10%, nvitrogen) was used. For passaging, cells were washed with phosphate buffered saline [PBS] (GIBCO 14040, Invitrogen, UK), incubated with trypsine (GIBCO 25300, Invitrogen, UK), and re-seeded into fresh medium. For seeding, cells were counted using a Neubauer haemocytometer (Assistant, Germany) by microscopy (Nikon, USA) on a non-adherent suspension of cells that were washed in PBS, trypsinised, centrifuged at 8° C. at 8000 rpm for 5 min and re-suspended in fresh medium.
(§15) The cells were grown in normal cell culture conditions at 37° C. under a 5% CO2 humidified atmosphere using appropriate medium. The cell count was adjusted to 10^5 cells/ml/ and 20,000 cells were added per well. The cells were incubated for 24 hours and 1 μl of the appropriate inhibitor concentrations were to the wells in triplicates. After 24 h of continuous exposure to each compound, the cytotoxicity was determined using the MIT (3-(4,5-Dimethylthiazol-2-yl)-2,5-diphenyltetrazolium bromide) (Lancaster Synthesis Ltd, UK) colorimetric assay. Absorbance was quantified by spectrophotometry at λ=570 nm (Envision Plate Reader, PerkinElmer, USA). IC50 values were calculated by a dose-response analysis using the Prism Graphpad Prism® software. The cytotoxicity results are shown below in Table 12.
(In general: Tetrazolium assays rely on reduction of a dye to a coloured formazan, in cell work by metabolically active cells.)

A further experiment concerns WI38 (Healthy cell line). Put plainly: MTT cytotoxicity assay. The note with it: Homo sapiens, read-out: IC50 WI38 (Healthy cell line). As to the method: as §14, §15

In general, MIC refers to the least concentration at which growth counts as inhibited. In general, IC50 refers to the concentration that inhibits the measured activity by half. With `COc1cc2c(cc1OCCCC(=O)Nc1cc(C(=O)Nc3ccc4oc(C(=O)N(C)C)cc4c3)n(C)c1)N=C[C@@H]1CCCN1C2=O` [PP-A159, (S)—N-(2-(dimethylcarbamoyl)benzofuran-5-yl)-4-(4-((7-methoxy-5-oxo-2,3,5,11a-tetrahydro-1H-benzo[e]pyrrolo[1,2-a][1,4]-diazepin-8-yl)oxy)butanamido)-1-methyl-1H-pyrrole-2-carboxamide], the MIC in [1] was under 0.125 µg/mL; in [2] it was under 0.125 µg/mL; in the experiment on EMRSA-15, under 0.125 µg/mL; in experiment [3], 0.5 µg/mL (≈ 0.78 µM); against EMRSA-16, under 0.125 µg/mL; with E. faecalis VSE NCTC 775, under 0.125 µg/mL. Further, the MIC in the experiment on A. baumannii NCTC 17978 is 4 µg/mL (≈ 6.24 µM); against K. pneumonia M6, 0.5 µg/mL (≈ 0.78 µM); with A. baumannii AYE, 4 µg/mL (≈ 6.24 µM); against P. aeruginosa PA01, 128 µg/mL (≈ 200 µM); against P. aeruginosa NCTC 13437, 32 to 64 µg/mL (≈ 49.9 to 99.9 µM); in the experiment on K. pneumonia NCTC 13368 it was 16 µg/mL (≈ 25 µM). Further, the IC50 in experiment [4] (MTT, 24 h continuous exposure) is 18.5 µM; with WI38 (Healthy cell line) (WI-38, MTT, 24 h continuous exposure, highest concentration tested 20 μM), over 20 µM.

Regarding `COc1cc2c(cc1OCCCC(=O)Nc1cc(C(=O)Nc3ccc4oc(C(=O)N5CCOCC5)cc4c3)n(C)c1)N=C[C@@H]1CCCN1C2=O` [PP-A147, (S)-4-(4-((7-methoxy-5-oxo-2,3,5,11a-tetrahydro-1H-benzo[e]pyrrolo[1,2-a][1,4]diazepin-8-yl)oxy)butanamido)-1-methyl-N-(2-(morpholine-4-carbonyl)benzofuran-5-yl)-1H-pyrrole-2-carboxamide], the MIC in experiment [1] is under 0.125 µg/mL; in [2] it was under 0.125 µg/mL; against EMRSA-15, under 0.125 µg/mL; in experiment [3] it was under 0.125 µg/mL; against EMRSA-16 it was 0.25 µg/mL (≈ 0.366 µM); in the experiment on E. faecalis VSE NCTC 775 it was under 0.125 µg/mL. The minimal inhibitory concentration (MIC) against A. baumannii NCTC 17978 was 8 µg/mL (≈ 11.7 µM); in the experiment with K. pneumonia M6, 0.5 to 1 µg/mL (≈ 0.732 to 1.46 µM); in the experiment with A. baumannii AYE it was 8 µg/mL (≈ 11.7 µM); against P. aeruginosa PA01, over 128 µg/mL; against P. aeruginosa NCTC 13437, 64 µg/mL (≈ 93.7 µM); in the experiment on K. pneumonia NCTC 13368, 32 to 64 µg/mL (≈ 46.9 to 93.7 µM). For the same compound, the 50% inhibitory concentration (IC50) in experiment [4] (24 h) was over 20 µM; in the experiment with WI38 (Healthy cell line) (WI-38, 24 h) it was over 20 µM.

As for `CCOC(=O)c1nc(NC(=O)c2cc3cc(NC(=O)c4cc(NC(=O)CCCOc5cc6c(cc5OC)C(=O)N5CCC[C@H]5C=N6)cn4C)ccc3s2)cn1C` [PP-B14, reference compound], the MIC in experiment [1] is under 0.125 µg/mL; in experiment [2] it was under 0.125 µg/mL; against EMRSA-15 it was 0.5 µg/mL (≈ 0.64 µM); in experiment [3], under 0.125 µg/mL; in the experiment with EMRSA-16, 1 µg/mL (≈ 1.28 µM); in the experiment on E. faecalis VSE NCTC 775 it was under 0.125 µg/mL. Further, the MIC was 64 µg/mL (≈ 82 µM) in the experiment on A. baumannii NCTC 17978; 128 µg/mL (≈ 164 µM) with K. pneumonia M6; 64 µg/mL (≈ 82 µM) in the experiment on A. baumannii AYE; over 128 µg/mL in the experiment on P. aeruginosa PA01; 128 µg/mL (≈ 164 µM) against P. aeruginosa NCTC 13437; 128 µg/mL (≈ 164 µM) against K. pneumonia NCTC 13368.

`COC(=O)c1cc(NC(=O)c2cc3cc(NC(=O)c4cc(NC(=O)CCCOc5cc6c(cc5OC)C(=O)N5CCC[C@H]5C=N6)cn4C)ccc3s2)cn1C` [PP-B17, reference compound]: the MIC in experiment [1] is under 0.125 µg/mL; in [2], under 0.125 µg/mL; with EMRSA-15, under 0.125 µg/mL; in experiment [3], under 0.125 µg/mL; against EMRSA-16, 0.25 µg/mL (≈ 0.326 µM); in the experiment on E. faecalis VSE NCTC 775, under 0.125 µg/mL. For the same compound, the MIC amounted to 8 µg/mL (≈ 10.4 µM) against A. baumannii NCTC 17978; 128 µg/mL (≈ 167 µM) in the experiment with K. pneumonia M6; 32 µg/mL (≈ 41.8 µM) in the experiment with A. baumannii AYE; 128 µg/mL (≈ 167 µM) with P. aeruginosa PA01; 64 µg/mL (≈ 83.6 µM) against P. aeruginosa NCTC 13437; 128 µg/mL (≈ 167 µM) against K. pneumonia NCTC 13368.
